Reference: ChEMBL document CHEMBL6103629 (J Med Chem, 2025)

How the values were obtained:
[1] = Drug distribution in Sprague-Dawley rat liver at 5 mg/kg, IG administrated as single dose measured after 0.5 hrs by LC-MS/MS analysis; type: ADME, organism-based; details: in vivo, po
LoVo [2] = assay: Antitumor activity against human LoVo cells xenografted in female Balb/c nude mouse assessed as tumor growth inhibition at 60 mg/kg QD, po measured every 3 days for 25 days relative to control; type: functional; details: 600 h, time 25 day, read-out: TGI
[3] = Drug metabolism in Sprague-Dawley rat plasma by LC-MS/MS analysis; type: ADME, cell-free; details: 5 h, 1 µM
[4] = Drug distribution in Sprague-Dawley rat brain at 5 mg/kg, IG administrated as single dose measured after 0.5 hrs by LC-MS/MS analysis; type: ADME, organism-based; details: po, read-out: Ct
CYP2C19 = CYP2C19 (Homo sapiens, UniProt P33261); assay: Inhibition of recombinant human CYP2C19 assessed as residual activity at 1 uM in the presence of NADPH incubated for 60 mins by LC-MS/MS analysis relative to control; type: ADME; details: read-out: Activity
Chain of CYP2C19 (P33261 whole entry): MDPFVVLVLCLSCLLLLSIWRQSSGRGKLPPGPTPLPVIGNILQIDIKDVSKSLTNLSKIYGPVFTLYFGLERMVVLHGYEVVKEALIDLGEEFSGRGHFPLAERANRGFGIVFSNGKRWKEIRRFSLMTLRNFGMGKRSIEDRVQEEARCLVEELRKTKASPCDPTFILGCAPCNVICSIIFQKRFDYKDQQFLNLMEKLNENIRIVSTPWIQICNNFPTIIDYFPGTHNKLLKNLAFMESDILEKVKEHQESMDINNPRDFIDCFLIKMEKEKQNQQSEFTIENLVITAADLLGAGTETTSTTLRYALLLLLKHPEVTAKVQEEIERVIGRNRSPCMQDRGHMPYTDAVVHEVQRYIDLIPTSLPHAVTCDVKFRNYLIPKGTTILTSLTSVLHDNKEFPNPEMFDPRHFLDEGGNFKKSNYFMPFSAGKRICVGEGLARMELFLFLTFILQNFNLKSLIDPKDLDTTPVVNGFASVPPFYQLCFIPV

[5] = Toxicity in Beagle dogs assessed as effect on respiratory system at 5 to 20 mg/kg, po administrated as single dose upto 24 hrs; type: organism-based, Canis lupus familiaris; details: dog, in vivo, dose 5-20 mg/kg
JeKo-1 = assay: Antitumor activity against human JeKo-1 cells xenografted in female CB17 SCID mouse assessed as tumor growth inhibition at 30 mg/kg BID, po measured every 2 days for 24 days relative to control; type: functional; details: JeKo-1, 576 h, time 24 day, read-out: TGI
[6] = Toxicity in Beagle dogs assessed as effect on cardiovascular system at 5 to 20 mg/kg, po administrated as single dose upto 24 hrs; type: organism-based, Canis lupus familiaris; details: dog, in vivo, dose 5-20 mg/kg
NCI-H1703 [7] = assay: Synergistic antitumor activity against human NCI-H1703 cells xenografted in female Balb/c nude mouse assessed as tumor growth inhibition co administered with Gemcitabine at 40 mg/kg QD, po administered as 3 days on and 4 days off schedule for 4 weeks relative to control; type: functional; details: NCI-H1703, 672 h, time 28 day, read-out: TGI
[8] = Stability in human plasma assessed as half life by LC-MS/MS analysis; type: ADME, cell-free
[9] = Dissociation constant, pKa of compound; type: physicochemical
LoVo [10] = assay: Induction of apoptosis in human LoVo cells assessed as necrotic cells at 3 uM incubated for 24 hrs by Annexin-V-FITC-PI staining based flow cytometric analysis (reference value: 0.97 %); type: functional
[11] = Plasma protein binding in Beagle dog at 1 uM incubated for 5 hrs in HTD dialysis in the presence of verapamil by LC-MS/MS analysis relative to control; type: ADME, cell-free, Canis lupus familiaris; details: read-out: PPB (converted)
NCI-H1703 [12] = assay: Antitumor activity against human NCI-H1703 cells xenografted in female Balb/c nude mouse assessed as tumor growth inhibition at 40 mg/kg QD, po administered as 3 days on and 4 days off schedule for 4 weeks relative to control; type: functional; details: NCI-H1703, 672 h, time 28 day, read-out: TGI
[13] = Plasma protein binding in CD-1 mouse at 1 uM incubated for 5 hrs in HTD dialysis in the presence of verapamil by LC-MS/MS analysis relative to control; type: ADME, cell-free; details: read-out: PPB (converted)
NCI-H1703 [14] = assay: Antitumor activity against human NCI-H1703 cells xenografted in female Balb/c nude mouse assessed as tumor growth inhibition at 40 mg/kg QD, po measured every 3 days for 28 days by vernier caliper based analysis relative to control; type: functional; details: NCI-H1703, 672 h, time 28 day, read-out: TGI
[15] = Plasma protein binding in human at 1 uM incubated for 5 hrs in HTD dialysis in the presence of verapamil by LC-MS/MS analysis relative to control; type: ADME, cell-free; details: read-out: PPB (converted)
LoVo [16] = assay: Antitumor activity against human LoVo cells xenografted in female Balb/c nude mouse assessed as tumor growth inhibition at 40 mg/kg QD, po measured every 3 days for 25 days relative to control; type: functional; details: 600 h, time 25 day, read-out: TGI
Cytochrome P450 2B6 = Cytochrome P450 2B6 (Homo sapiens, UniProt P20813); assay: Inhibition of CYP2B6 in human liver microsomes in the presence of NADPH incubated for 60 mins by LC-MS/MS analysis; type: ADME, Microsome
Chain of Cytochrome P450 2B6 (P20813 whole entry): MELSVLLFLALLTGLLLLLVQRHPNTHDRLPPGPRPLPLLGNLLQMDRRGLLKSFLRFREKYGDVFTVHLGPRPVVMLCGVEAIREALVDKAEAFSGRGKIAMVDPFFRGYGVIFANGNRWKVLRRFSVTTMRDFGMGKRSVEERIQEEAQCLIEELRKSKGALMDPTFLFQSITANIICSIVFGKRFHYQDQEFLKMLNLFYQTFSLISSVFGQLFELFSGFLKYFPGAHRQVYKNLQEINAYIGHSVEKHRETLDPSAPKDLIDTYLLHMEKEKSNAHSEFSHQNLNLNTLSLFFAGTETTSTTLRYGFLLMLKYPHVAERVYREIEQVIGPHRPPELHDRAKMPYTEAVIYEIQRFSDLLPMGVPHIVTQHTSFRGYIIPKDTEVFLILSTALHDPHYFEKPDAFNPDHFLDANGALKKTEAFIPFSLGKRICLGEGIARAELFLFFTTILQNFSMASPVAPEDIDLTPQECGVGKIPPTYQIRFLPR

Cytochrome P450 2C9 = Cytochrome P450 2C9 (Homo sapiens, UniProt P11712); assay: Inhibition of CYP2C9 in human liver microsomes in the presence of NADPH incubated for 60 mins by LC-MS/MS analysis; type: ADME, Microsome
Chain of Cytochrome P450 2C9 (P11712 whole entry): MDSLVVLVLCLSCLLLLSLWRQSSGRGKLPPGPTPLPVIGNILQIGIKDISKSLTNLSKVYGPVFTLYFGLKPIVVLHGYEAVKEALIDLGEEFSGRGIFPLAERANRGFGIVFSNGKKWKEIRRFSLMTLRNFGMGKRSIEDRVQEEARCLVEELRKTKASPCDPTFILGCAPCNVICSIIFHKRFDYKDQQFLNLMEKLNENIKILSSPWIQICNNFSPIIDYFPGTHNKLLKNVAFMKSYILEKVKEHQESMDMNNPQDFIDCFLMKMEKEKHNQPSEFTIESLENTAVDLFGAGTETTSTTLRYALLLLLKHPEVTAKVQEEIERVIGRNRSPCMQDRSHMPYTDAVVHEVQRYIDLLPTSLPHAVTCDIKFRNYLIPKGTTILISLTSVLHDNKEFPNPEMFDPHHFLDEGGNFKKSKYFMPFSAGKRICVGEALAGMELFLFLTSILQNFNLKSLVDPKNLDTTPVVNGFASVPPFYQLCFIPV

Cytochrome P450 2C8 = Cytochrome P450 2C8 (Homo sapiens, UniProt P10632); assay: Inhibition of CYP2C8 in human liver microsomes in the presence of NADPH incubated for 60 mins by LC-MS/MS analysis; type: ADME, Microsome
Chain of Cytochrome P450 2C8 (P10632 whole entry): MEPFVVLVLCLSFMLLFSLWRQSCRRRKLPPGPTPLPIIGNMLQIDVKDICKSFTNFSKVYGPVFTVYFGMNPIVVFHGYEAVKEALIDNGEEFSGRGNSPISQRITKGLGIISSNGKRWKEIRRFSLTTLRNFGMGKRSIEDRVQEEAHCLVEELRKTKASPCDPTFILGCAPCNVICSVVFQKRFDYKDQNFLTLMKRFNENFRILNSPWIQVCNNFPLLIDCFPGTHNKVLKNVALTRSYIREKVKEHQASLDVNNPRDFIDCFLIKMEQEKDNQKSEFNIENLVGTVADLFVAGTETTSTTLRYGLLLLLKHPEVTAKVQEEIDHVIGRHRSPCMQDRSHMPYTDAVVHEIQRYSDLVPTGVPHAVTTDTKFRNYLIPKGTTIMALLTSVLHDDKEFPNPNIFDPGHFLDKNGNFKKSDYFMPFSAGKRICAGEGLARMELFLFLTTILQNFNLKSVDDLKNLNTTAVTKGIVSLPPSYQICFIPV

[17] = Stability in CD-1 mouse plasma assessed as half life by LC-MS/MS analysis; type: ADME, cell-free
[18] = Drug distribution in Sprague-Dawley rat stomach at 5 mg/kg, IG administrated as single dose measured after 0.5 hrs by LC-MS/MS analysis; type: ADME, organism-based; details: in vivo, po
[19] = Drug metabolism in Beagle dogs liver cells at 2 uM incubated upto 120 mins by LC-MS/MS analysis; type: ADME, cell-based, Canis lupus familiaris; details: dog, 2 h
[20] = Induction of CYP3A4 mRNA expression in human primary hepatocyte isolated from DZM donor at 0.1 to 10 uM incubated for 72 hrs by real-time PCR analysis; type: ADME, cell-based; details: hepatocytes, dose 0.1-10 µM
Cytochrome P450 2D6 = Cytochrome P450 2D6 (Homo sapiens, UniProt P10635); assay: Inhibition of CYP2D6 in human liver microsomes in the presence of NADPH incubated for 60 mins by LC-MS/MS analysis; type: ADME, Microsome
Chain of Cytochrome P450 2D6 (P10635 whole entry): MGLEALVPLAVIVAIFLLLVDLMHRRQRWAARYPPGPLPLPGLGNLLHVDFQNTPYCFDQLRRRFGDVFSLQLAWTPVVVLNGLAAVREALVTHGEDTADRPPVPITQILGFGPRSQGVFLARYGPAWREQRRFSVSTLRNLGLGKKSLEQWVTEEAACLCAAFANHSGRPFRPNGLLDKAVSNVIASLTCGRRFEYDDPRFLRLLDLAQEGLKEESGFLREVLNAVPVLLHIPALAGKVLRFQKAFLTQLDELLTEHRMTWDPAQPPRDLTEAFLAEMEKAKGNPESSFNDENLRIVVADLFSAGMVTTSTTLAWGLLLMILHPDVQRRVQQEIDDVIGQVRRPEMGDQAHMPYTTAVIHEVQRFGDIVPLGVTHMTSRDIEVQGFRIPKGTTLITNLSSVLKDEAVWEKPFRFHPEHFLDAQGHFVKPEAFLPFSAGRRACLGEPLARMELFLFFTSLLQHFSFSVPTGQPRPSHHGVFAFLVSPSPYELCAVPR

[21] = Drug metabolism in CD-1 mouse plasma by LC-MS/MS analysis; type: ADME, cell-free; details: 5 h, 1 µM
[22] = Toxicity in female CB17 SCID mouse xenografted with human JeKo-1 cells assessed as body weight at 40 mg/kg BID, po administered as 3 days on and 4 days off schedule for 24 days; type: organism-based; details: in vivo, 576 h, time 24 day
LoVo [23] = assay: Antitumor activity against human LoVo cells xenografted in female Balb/c nude mouse assessed as tumor growth inhibition at 10 mg/kg QD, po measured every 3 days for 25 days relative to control; type: functional; details: 600 h, time 25 day, read-out: TGI
[24] = Toxicity in Sprague-Dawley rats assessed as effect on central nervous system at 10 to 40 mg/kg, po administrated as single dose upto 24 hrs; type: organism-based; details: rat, in vivo, dose 10-40 mg/kg
[25] = Induction of CYP1A2 mRNA expression in human primary hepatocyte isolated from YND donor at 0.1 to 10 uM incubated for 72 hrs by real-time PCR analysis; type: ADME, cell-based; details: hepatocytes, dose 0.1-10 µM
[26] = Drug accumulation in female Sprague-Dawley rat at 5 mg/kg, IG measured for 7 days by LC-MS/MS analysis; type: ADME, organism-based; details: in vivo, po, 168 h, time 7 day
LoVo [27] = assay: Induction of apoptosis in human LoVo cells assessed as late apoptotic cells at 3 uM incubated for 24 hrs by Annexin-V-FITC-PI staining based flow cytometric analysis (reference value: 13.2 %); type: functional
[28] = Lipophilicity, logP of compound; type: physicochemical; details: octanol/water
CYP1A2 = CYP1A2 (Homo sapiens, UniProt P05177); assay: Inhibition of recombinant human CYP1A2 assessed as residual activity at 1 uM in the presence of NADPH incubated for 60 mins by LC-MS/MS analysis relative to control; type: ADME; details: read-out: Activity
Chain of CYP1A2 (P05177 whole entry): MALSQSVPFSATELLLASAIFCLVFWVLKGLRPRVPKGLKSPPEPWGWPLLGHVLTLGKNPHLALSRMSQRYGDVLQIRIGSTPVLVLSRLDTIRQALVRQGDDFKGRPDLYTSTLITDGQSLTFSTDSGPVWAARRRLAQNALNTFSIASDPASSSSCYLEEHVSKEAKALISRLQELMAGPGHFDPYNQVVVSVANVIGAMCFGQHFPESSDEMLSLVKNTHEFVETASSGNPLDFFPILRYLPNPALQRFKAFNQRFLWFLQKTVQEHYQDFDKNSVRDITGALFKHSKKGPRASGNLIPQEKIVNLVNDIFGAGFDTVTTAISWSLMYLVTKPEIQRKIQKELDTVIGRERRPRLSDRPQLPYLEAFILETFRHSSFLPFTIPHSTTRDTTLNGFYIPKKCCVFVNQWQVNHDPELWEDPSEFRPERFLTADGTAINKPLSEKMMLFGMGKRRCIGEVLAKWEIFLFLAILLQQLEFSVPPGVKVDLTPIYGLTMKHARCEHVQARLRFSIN

Drug uptake [1]: Active
Drug metabolism [3]: metabolite_notdetected
concentration at 0.5 h [4]: 4.47 ng/g
activity at 1 h, 1 µM (CYP2C19): 109%
half-life [8]: > 2 h
pKa [9]: 4.25
fraction unbound at 5 h, 1 µM [11]: 0.256
fraction unbound at 5 h, 1 µM [13]: 0.361
fraction unbound at 5 h, 1 µM [15]: 0.075
IC50 (Cytochrome P450 2B6): > 100 µM
IC50 (Cytochrome P450 2C9): 32.8 µM
IC50 (Cytochrome P450 2C8): 37.1 µM
half-life [17]: > 2 h
Drug uptake [18]: Active
Drug metabolism [19]: metabolite_detected
Activity [20]: Active
IC50 (Cytochrome P450 2D6): > 100 µM
Drug metabolism [21]: metabolite_notdetected
Activity [25]: Not_active
Drug uptake [26]: Active
logP [28]: 0.7
activity at 1 h, 1 µM (CYP1A2): 105%
SMILES: Cc1nn(-c2cccnc2)c(C)c1-c1cc(N2CC3CCC(C2)O3)nc2c(-c3ccn[nH]3)cnn12.O=C(O)/C=C/C(=O)O
inhibition in vivo at 60 mg/kg (LoVo [2]): 67.4%
Activity [5]: Non-toxic
inhibition in vivo at 30 mg/kg (JeKo-1): 96.4%
Activity [6]: Non-toxic
inhibition in vivo at 40 mg/kg (NCI-H1703 [7]): 92.9%
Activity (LoVo [10]): 2.65%
inhibition in vivo at 40 mg/kg (NCI-H1703 [12]): 36.2%
inhibition in vivo at 40 mg/kg (NCI-H1703 [14]): 73.3%
inhibition in vivo at 40 mg/kg (LoVo [16]): 42.6%
Activity [22]: Non-toxic
inhibition in vivo at 10 mg/kg (LoVo [23]): 13.9%
Activity [24]: Non-toxic
Activity (LoVo [27]): 19.8%
